In US8772504B2, “Substituted benzoxazole, benzimidazole, oxazolopyridine and imidazopyridine derivatives as gamma secretase modulators” (Janssen Pharmaceuticals, Inc., priority 2009, dated 2014):

What was measured:
Aβ42 [1] = experiment: Screening for γ-secretase-modulating activity, Method 1: Aβ42 sandwich ELISA on SKNBE2 cell media; type: cell-based; conditions: Homo sapiens, SKNBE2 cells carrying APP 695 wild type
In short: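 SKNBE2 cells expressing wild-type APP695 were treated with compound for 18 h in Ultraculture/1% glutamine. Secreted Aβ42 was quantified by sandwich ELISA (C-terminal capture, biotinylated 3D6, TMB, 450 nm), with WST-1 used as a toxicity check. IC50 was derived from 4-parameter fits of % inhibition or % of untreated control.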

Aβ42 [2] = experiment: In vivo efficacy Method 1: brain soluble Aβ42 by ELISA; set-up: species or system mouse; conditions: Table 4a, single oral dose, overnight fasted animals, sacrificed after 4 h, soluble fraction of brain homogenates
Text: (§1) To determine whether acute administration of an Aβ42 lowering agent would reduce Aβ42 levels in vivo, non-transgenic rodents, e.g. mice or rats were used. Alternatively, two to three month old Tg2576 mice expressing APP695 containing the “Swedish” variant can be used or a transgenic mouse model developed by Dr. Fred Van Leuven (K.U. Leuven, Belgium) and co-workers, with neuron-specific expression of a clinical mutant of the human amyloid precursor protein [V717I] […] Young transgenic mice have high levels of Aβ in the brain but no detectable Aβ deposition. At approximately 6-8 months of age, the transgenic mice start to display spontaneous, progressive accumulation of β-amyloid (Aβ) in the brain, eventually resulting in amyloid plaques within the subiculum, hippocampus and cortex. Animals treated with the Aβ42 lowering agent were examined and compared to those untreated or treated with vehicle and brain levels of soluble Aβ42 and total Aβ would be quantitated by standard techniques, for example, using ELISA.
(§2) A typical protocol for measuring Aβ42 lowering in vivo is shown but it is only one of many variations that could be used to optimize the levels of detectable Aβ. For example, Aβ42 lowering compounds were formulated in 20% of Captisol® (a sulfobutyl ether of β-cyclodextrin) in water or 20% hydroxypropyl β cyclodextrin. The Aβ42 lowering agents were administered as a single oral dose or by any acceptable route of administration to overnight fasted animals. After 4 h, the animals were sacrificed and Aβ42 levels were analysed.
(§3) Blood was collected by decapitation and exsanguinations in EDTA-treated collection tubes. Blood was centrifuged at 1900 g for 10 minutes (min) at 4° C. and the plasma recovered and flash frozen for later analysis. The brain was removed from the cranium and hindbrain. The cerebellum was removed and the left and right hemisphere were separated. The left hemisphere was stored at −18° C. for quantitative analysis of test compound levels. The right hemisphere was rinsed with phosphate-buffered saline (PBS) buffer and immediately frozen on dry ice and stored at −80° C. until homogenization for biochemical assays.
(§4) All samples were sonicated for 30 seconds on ice at 20% power output (pulse mode). Homogenates were centrifuged at 221.300×g for 50 min. The resulting high speed supernatants were then transferred to fresh tubes and were optionally further purified before the next step. A portion of the supernatant was neutralized with 10% 0.5 M Tris-HCl and this was used to quantify Aβtotal.
(§5) The obtained supernatants were purified with Water Oasis HLB reverse phase columns (Waters Corp., Milford, Mass.) to remove non-specific immunoreactive material from the brain lysates prior subsequent Aβ detection. Using a vacuum manifold, all solutions were passed through the columns at a rate of approximately 1 ml per min, so the vacuum pressure was adjusted accordingly throughout the procedure. Columns were preconditioned with 1 ml of 100% MeOH, before equilibration with 1 ml of H2O, Non-neutralized brain lysates were loaded onto the columns. The loaded samples were then washed twice with the first wash performed with 1 ml of 5% MeOH, and the second wash with 1 ml of 30% MeOH. Finally, the Aβ was eluted from the columns and into 100×30 mm glass tubes, with a solution of 90% MeOH with 2% NH4OH. The eluate was then transferred into 1.5 ml tubes and concentrated in a speed-vac concentrator on high heat for about 1.5-2 h at 70° C. The concentrated Aβ was then resuspended in UltraCULTURE General Purpose Serum-Free Medium (Cambrex Corp., Walkersville, Md.) plus Protease Inhibitors added.
To quantify the amount of Aβ42 in the soluble fraction of the brain homogenates, commercially available Enzyme-Linked-Immunosorbent-Assay (ELISA) kits were used (e.g. Innotest® β-Amyloid(1-42), Innogenetics N.V., Ghent, Belgium). The Aβ42 ELISA was performed using the plate provided with the kit only.

Aβtotal [3] = experiment: In vivo efficacy Method 1: brain soluble Aβtotal by ELISA; set-up: species or system mouse; conditions: Table 4a, single oral dose, overnight fasted animals, sacrificed after 4 h, soluble fraction of brain homogenates
Text: as §1, §2, §3, §4
as §5, with “added. […]” for “added.”

Aβtotal [4] = experiment: Screening for γ-secretase-modulating activity, Method 1: Aβtotal sandwich ELISA on SKNBE2 cell media; type: cell-based; conditions: Homo sapiens, SKNBE2 cells carrying APP 695 wild type
In short: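 SKNBE2 cells expressing wild-type APP 695 were treated with compound for 18 hours. Aβtotal in the medium was measured by sandwich ELISA (6E10 capture, biotinylated 4G8 detection, fluorogenic peroxidase read-out). IC50 came from a 4-parameter fit of % inhibition with top/bottom fixed at 100/0 and Hill slope 1, or as averaged IC50 from % of untreated control.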

Aβ42 [5] = experiment: Screening for γ-secretase-modulating activity, Method 2: Aβ42 Alphalisa on SKNBE2 cell supernatant; type: cell-based; conditions: Method 2, Table 3c, SKNBE2 cells carrying APP 695 wild type, overnight incubation
In short: (§6)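 SKNBE2 cells expressing wild-type APP695, plated at 10^4 cells/well with compound at several concentrations and incubated overnight at 37° C. Aβ42 (C-terminal capture, N-terminal biotinylated detection) and Aβtotal (N-terminal/4G8 pair) measured in supernatant by AlphaLISA. IC50 from 4-parameter fit of percent of compound-free control.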

Aβtotal [6] = experiment: Screening for γ-secretase-modulating activity, Method 2: Aβtotal Alphalisa on SKNBE2 cell supernatant; type: cell-based; conditions: Method 2, Table 3c, SKNBE2 cells carrying APP 695 wild type, overnight incubation
In short: as §6

Aβ42 [7] = experiment: In vivo efficacy Method 2: brain soluble Aβ42 by ELISA; set-up: species or system mouse; conditions: Table 4b, single oral dose, overnight fasted non-transgenic animals, sacrificed after 4 h, soluble fraction of brain homogenates
Text: (§7) To determine whether acute administration of an Aβ42 lowering agent would reduce Aβ42 levels in vivo, non-transgenic rodents, e.g. mice or rats were used. Animals treated with the Aβ42 lowering agent were examined and compared to those untreated or treated with vehicle and brain levels of soluble Aβ42 and total Aβ were quantitated by standard techniques, for example, using ELISA. Treatment periods varied from hours (h) to days and were adjusted based on the results of the Aβ42 lowering once a time course of onset of effect could be established.
as §2, §3
(§8) Mouse brains from non-transgenic animals were resuspended in 8 volumes of 0.4% DEA (diethylamine)/50 mM NaCl containing protease inhibitors (Roche-11873580001 or 04693159001) per gram of tissue, e.g. for 0.158 g brain, add 1.264 ml of 0.4% DEA. All samples were homogenized in the FastPrep-24 system (MP Biomedicals) using lysing matrix D (MPBio #6913-100) at 6 m/s for 20 seconds. Homogenates were centrifuged at 221.300×g for 50 min. The resulting high speed supernatants were then transferred to fresh eppendorf tubes. Nine parts of supernatant were neutralized with 1 part 0.5 M Tris-HCl pH 6.8 and used to quantify Aβtotal and Aβ42.
(§9) To quantify the amount of Aβtotal and Aβ42 in the soluble fraction of the brain homogenates, Enzyme-Linked-Immunosorbent-Assays were used . Briefly, the standards (a dilution of synthetic Aβ1-40 and Aβ1-42, Bachem) were prepared in 1.5 ml Eppendorf tube in Ultraculture, with final concentrations ranging from 10000 to 0.3 pg/ml. The samples and standards were co-incubated with HRPO-labelled N-terminal antibody for Aβ42 detection and with the biotinylated mid-domain antibody 4G8 for Aβtotal detection. 50 μl of conjugate/sample or conjugate/standards mixtures were then added to the antibody-coated plate (the capture antibodies selectively recognize the C-terminal end of Aβ42, antibody JRF/cAβ42/26, for Aβ42 detection and the N-terminus of Aβ, antibody JRF/rAβ/2, for Aβtotal detection). The plate was allowed to incubate overnight at 4° C. in order to allow formation of the antibody-amyloid complex. Following this incubation and subsequent wash steps the ELISA for Aβ42 quantification was finished by addition of Quanta Blu fluorogenic peroxidase substrate according to the manufacturer's instructions (Pierce Corp., Rockford, Ill.). A reading was performed after 10 to 15 min (excitation 320/emission 420).
In this model at least 20% Aβ42 lowering compared to untreated animals would be advantageous.

Aβtotal [8] = experiment: In vivo efficacy Method 2: brain soluble Aβtotal by ELISA; set-up: species or system mouse; conditions: Table 4b, single oral dose, overnight fasted non-transgenic animals, sacrificed after 4 h, soluble fraction of brain homogenates
Text: as §7, §2, §3, §8, §9
For Aβtotal detection, a Streptavidine-Peroxidase-Conjugate was added, followed 60 min later by an additional wash step and addition of Quanta Blu fluorogenic peroxidase substrate according to the manufacturer's instructions (Pierce Corp., Rockford, Ill.). A reading was performed after 10 to 15 min (excitation 320 nm/emission 420 nm).

[9] = Table 3a, 18 hours, XLfit, top/bottom fixed to 100 and 0, hill slope 1
[10] = Table 3b, non-linear regression of % of control, averaged IC50 values

Row | melting point | IC50 (Aβ42 [1]; [9]) | IC50 (Aβ42 [1]; [10]) | IC50 (Aβtotal [4]; [9]) | IC50 (Aβtotal [4]; [10]) | IC50 (Aβ42 [5]; Homo sapiens) | IC50 (Aβtotal [6]; Homo sapiens) | SMILES | further results
1 | 201.7 °C | 29 nM | 28 nM | > 1000 nM | > 3000 nM | – | – | Cc1cn(-c2ncc(Nc3cccc4c3nc(-c3ccc(F)cc3)n4C)cn2)cn1 [Compound 6] | Aβ42 (% Ctrl) _Mean (Aβ42 [2]): 66 % Ctrl; Aβtotal (% Ctrl) _Mean (Aβtotal [3]): 91 % Ctrl
2 | 81.2 °C | 84 nM | 76 nM | > 3000 nM | > 3000 nM | – | – | COc1cc(Nc2cccc3c2nc(N2CCC(F)(F)CC2)n3C)ccc1-n1cnc(C)c1 [Compound 12] | –
3 | 172.3 °C | – | – | – | – | 4 nM | 4790 nM | COc1nc(Nc2cc(C(C)C)nc3c2nc(-c2ccc(F)cc2)n3C)ccc1-n1cnc(C)c1 [Compound 111] | –
4 | 257.2 °C | – | – | – | – | 79 nM | > 10000 nM | CC(=O)Nc1cccc(-c2nc3c(Nc4ccc(-n5cnc(C)c5)c(F)c4)nc(C)cc3n2C)c1 [Compound 141] | –
5 | – | – | – | – | – | – | – | COc1cc(Nc2ccc(-n3cnc(C)c3)c(OC)n2)c2nc(-c3ccc(F)cc3)n(C)c2n1 [Compound 202] | Aβ42 (% Ctrl) _Mean (Aβ42 [7]): 82 % Ctrl; IC50 (Aβ42 [5]): 5 nM; Aβtotal (% Ctrl) _Mean (Aβtotal [8]): 102 % Ctrl; IC50 (Aβtotal [6]): > 10000 nM
